Consider 7 compounds from paper PMC13184981, “Discovery and Development of a Potent LIMK2 Isoform-Specific Degrader” (ACS Chemical Biology, 2026).

By DC50 is commonly meant the concentration at which degradation of the target reaches its halfway point. What is called IC50 is the concentration needed to halve the response being measured.

Bounds are passed on as bounds.

One data set concerns the target VHL:ELOB:ELOC (Homo sapiens, UniProt P40337). Nature of the data set: SPR VHL binary complex affinity and kinetics. Conditions: read-out: binary affinity toward VHL. The format is binding. How it is done: (§1) Approximately 1000 RU of biotinylated VHL:ELOB:ELOC was loaded onto a Series S CM5 chip coated with Streptavidin. All experiments were performed at 25 °C. The chip was equilibrated with a running buffer containing 20 mM HEPES, pH 7.4, 150 mM NaCl, 0.5 mM TCEP, 1% BSA, and 0.05% Tween 20.
To assess ternary complex formation, 1 μM of VHL-binding PROTAC was preincubated with a 2-fold molar excess of LIMK1 to promote binary complex formation and minimize the hook effect. The resulting binary complex was injected over the immobilized VHL:ELOB:ELOC surface at a flow rate of 30 μL/min for 60 s, followed by a dissociation phase of 180 s. An increase in resonance signal relative to the binary complex alone was used as an indicator of ternary complex formation. In separate experiments, binary and ternary complex affinities were measured and compared using serial dilutions as described for LIMK1. Additionally, the association rate constant (k a), dissociation rate constant (k d) were determined for the binary complexes.

Data set [1] has as its target T1, VHL:ELOB:ELOC and LIMK1 kinase domain (Homo sapiens, UniProt P40337+P53667).
T1 construct: (330–S637), LIMK1-avi; 6xHis-Z-tag (TEV-cleavable) (N, cleaved yes); made in house; host or cells: LIMK1: insect cells (baculovirus)
Nature of the data set: SPR VHL ternary complex formation with LIMK1. The format is binding. The method, then:
Surprised by the weak target engagement of VHL-based LIMK PROTACs, we investigated whether they form a stable ternary complex. To address this, we established an SPR-based ternary complex assay using immobilized VHL:ELOB/C complex on an SPR chip. In this assay format, the binary complex was formed by preincubating PROTACs with a 2-fold excess of purified LIMK1 kinase domain to avoid the hook effect. The binary complex was passed over an SPR surface immobilized with the VHL:ELOB/C complex. Ternary complex formation was detected as a large signal increase, as expected for the large molecular weight increase upon binding of the LIMK1 PROTAC complex (Figure C).
as §1
To assess ternary complex formation, 1 μM of VHL-binding PROTAC was preincubated with a 2-fold molar excess of LIMK1 to promote binary complex formation and minimize the hook effect. […] In separate experiments, binary and ternary complex affinities were measured and compared using serial dilutions as described for LIMK1. Additionally, the association rate constant (k a), dissociation rate constant (k d) were determined for the binary complexes.

A further data set deals with T2, EGFP–LIMK2 (Homo sapiens, UniProt P53671).
T2 construct: P2A remnant (from EGFP-LIMK2-P2A-mCherry; that residues stay on LIMK2 after self-cleavage is own knowledge) (C); expressed in transfected cells; host or cells: HuCCT1 (lentiviral transduction, doxycycline-inducible pCW57 vector)
Briefly: EGFP-LIMK2 depletion live-cell assay (Incucyte). The format is cell-based. The following applies: for EGFP–LIMK2 degradation (in words): live cells, over 72 h. How it is done: To enable a more comprehensive and rapid evaluation of the synthesized PROTACs, we generated a stable, doxycycline-inducible HuCCT1 cell line that expressed an N-terminally fused EGFP–LIMK2 protein. […] The degradation activity of the synthesized PROTACs set was screened at five concentrations ranging from 1 nM to 1000 nM over 72 h using live-cell imaging (Figure E).
LIMK2 was cloned into pcDNA5-EGFP-NLS-P2A-mCherry-PTS1 (Addgene plasmid #87803) by replacing the NLS sequence with the LIMK2 sequence. pcDNA5-EGFP-NLS-P2A-mCherry-PTS1 was a gift from Andrea Musacchio. Subsequently, EGFP-[…]-P2A-mCherry was cloned into the lentiviral vector pCW57-MCS1-P2A-MCS2 (Hygro) (Addgene plasmid #80922) to generate pCW57-HygB-EGFP-LIMK2-P2A-mCherry. pCW57-MCS1-P2A-MCS2 (Hygro) was a gift from Adam Karpf.
HEK293T cells (ATCC, CRL-3216) were cultured in Dulbecco’s Modified Eagle’s Medium (DMEM), while HUCCT1 cells (ATCC, CRL-1997) were cultured in RPMI medium supplemented with 10% fetal bovine serum (FBS) and 1% penicillin/streptomycin (P/S) antibiotic mix (all from Sigma-Aldrich, St. Louis, Missouri, USA). Lentiviral particles were produced in HEK293T cells using pCW57-HygB-EGFP-LIMK2-[…]P2A-mCherry, pMD2.G, and psPAX2. HUCCT1 cells were transduced with lentivirus to express LIMK2.
Briefly, the cells were plated and propagated in 6-well plates overnight. The next day, transduction with viruses was performed. Two days later, transduced cells with pCW57-HygB-EGFP-LIMK2-P2A-mCherry plasmids were selected using 100 μg/mL Hygromycin B. After at least three passages, the cells were sorted for the same populations of RFP- and GFP-expressing cells using the SH800S Cell Sorter (Sony Biotechnology, San Jose, CA, USA). Stable pools of cells were maintained in the same medium used for selection.
To assess the turnover of LIMK2, we used the Incucyte S3 or XS5 live-cell imaging system and performed the assay as previously described. , Briefly, 2,000 HUCCT1 cells stably expressing EGFP-LIMK2-P2A-mCherry were seeded per well in a 384-well plate in 50 μL of RPMI medium supplemented with 10% fetal bovine serum (FBS) and 1% penicillin/streptomycin. Cells were incubated for 24 h before treatment. To induce LIMK2 expression, 1 μg/mL of doxycycline (Sigma-Aldrich, D9891–1G) was added at the time of seeding.
After 24 h, 50 μL of medium containing either 0.1% DMSO or the desired concentration of PROTACs was added. Fluorescence in three channels–GFP, RFP, and phase contrast (cell confluence)–was monitored every 2 h for 72 h using the Incucyte S3 or XS5 (Sartorius, Germany). LIMK2 turnover was quantified by calculating the ratio of total fluorescence intensity of RFP to GFP. Each time point represents the average ratio from three technical replicates.

In data set [2] the target is T3, LIMK2 (Homo sapiens, UniProt P53671). Briefly: NanoBRET cellular target engagement, LIMK2. The format is cell-based. Also on record: host or cells: HEK293T. Conditions: HEK293T cells, Tracer K10, 2 h; read-out: LIMK2 NanoBRET IC50.
Procedure: Gene encoding LIMK1 (Promega, NV3391) and LIMK2 (Promega, NV1531), CRBN (Promega, N2741) proteins cloned in frame with NanoLuc fusion tag at the C-terminus, were transfected into HEK293T cells using FuGENE HD (Promega, E2312) following manufacture’s protocol and proteins were allowed to express for 20 h at 37 °C and 5% CO2. […] The 10 μL of transfected cells after trypsinization and resuspending in Opti-MEM (Life Technologies, 31985070) were dispensed into each well of the 384-well plate (Greiner 781207) at a cell density of 2 × 10^5 cells/mL. For dose–response BRET measurements, compounds at various concentrations, immediately followed by Tracer K10 (Promega, Tracer DB ID: T000008) for LIMK1 and LIMK2, CRBN Tracer (Promega, Tracer DB ID: T000018) for CRBN at an optimum KD concentration chosen from TracerDB (tracerdb.org), were pipetted using an Echo acoustic dispenser (Labcyte). The system was allowed to equilibrate for 2 h at 37 °C and 5% CO2 before BRET measurements. To measure BRET signal, the NanoBRET NanoGlo Substrate (Promega, N1573) was added as per the manufacturer’s protocol, and filtered luminescence was measured on a PHERAstar plate reader (BMG Labtech) equipped with a luminescence filter pair (450 nm BP filter (donor) and 610 nm LP filter (acceptor)). For lysed NanoBRET measurement, 25 nL of Digitonin (0.05 μg/μL) was pipetted to each well using Labcyte, and the plate was incubated for 5 min at 37 °C and 5% CO2. After incubation, the BRET signals were measured by a PHERAstar plate reader following the same procedure as intact NanoBRET measurement. […] The BRET ratios are normalized to both of them in the prism output data file. Competitive displacement data were then normalized to controls and were graphed using GraphPad Prism 9 software employing a normalized 3-parameter curve fit with the following equation: Y = 100/(1 + 10̂(X – logIC50)).
The target of data set [3] is T3, LIMK2. Nature of the data set: Western blot of endogenous LIMK2 in HuCCT1 cells. Type of data set: cell-based. The following applies: HuCCT1, 6 h treatment. How it is done:
HuCCT1 cell line was cultured in Roswell Park Memorial Institute (RPMI) 1640 medium supplemented with GlutaMAX, 10% fetal bovine serum (FBS), and 1% penicillin/streptomycin. The cell line was maintained in an incubator with 5% CO2 at 37 °C. For the treatment, 3 × 10^5 cells were plated and treated with the compounds and DMSO as the control for 6 h. The cells were then lysed using RIPA buffer (50 mM Tris-HCl pH 7.4, 150 mM NaCl, 1% Triton X-100, 1% NaDOC, 0.1% SDS, 1 mM EDTA), freshly supplemented with protease and phosphatase inhibitor cocktails (Sigma-Aldrich, Darmstadt, Germany). After 1 h incubation on ice, the lysates were centrifuged for 30 min at […], and the protein-containing supernatant was collected. The protein concentrations were determined using Protein Assay Dye Reagent Concentrate (Bradford, Bio-Rad, Hercules, CA, USA) and Pre-Diluted Protein Assay Standards: Bovine Serum Albumin (BSA) Set (Thermo Fisher Scientific, Darmstadt, Germany). Then, equal amounts of protein was mixed with Roti-Load 1 dye (Carl Roth, Karlsruhe, Germany) and 4x Laemmli Buffer (Bio-Rad, Hercules, CA, USA), denatured at 95 °C, and run on NuPAGE 4–12% bis-Tris gels (Thermo Fisher Scientific). Proteins were blotted on methanol-activated PVDF Transfer Membranes (Thermo Fisher Scientific) using the wet transfer method with the transfer buffer (Thermo Fisher Scientific) and 20% methanol. Afterward, the membranes were blocked with 5% milk or 3% BSA in 0.1% TBS-T for 1 h at RT and incubated overnight at 4 °C with primary antibodies: GAPDH (catalog no. 2118, Cell Signaling Technology, MA, USA, 1:1000 dilution), LIMK1 (catalog no. 3842, Cell Signaling Technology, 1:1000 dilution), LIMK2 (catalog no. 3845, 1:500 dilution), phospho-Cofilin (catalog no. 3313, Cell Signaling Technology, 1:1000 dilution), Cofilin (catalog no. 5175, Cell Signaling Technology, 1:1000 dilution). Then, the membranes were washed with 0.1% TBS-T and incubated with secondary horseradish-peroxidase (HRP)-conjugated antibody for 2 h (catalog no. 7074, Cell Signaling Technology, 1:3000 dilution). The membranes were washed again with 0.1% TBS-T before they were developed using X-ray films (Fujifilm, Dusseldorf, Germany).
(Immunoblotting shows a protein as a band on a membrane.)

Another data set relates to HEK293T cells. Briefly: CellTiter-Glo 2.0 cell viability assay. Conditions: 24-h treatment, 25 nM to 20 µM. The format is cell-based, human. The method, then:
The effects of the PROTAC on cell viability were determined using the CellTiter-Glo 2.0 Cell Viability Assay (Promega, G9241) following the manufacturer’s protocol. […] 40 μL of assay reagent was added and incubated for 10 min at RT. Filtered luminescence was measured using a PHERAstar plate reader (BMG Labtech), and data were analyzed using GraphPad Prism 9.
On the technique in general: ATP-based viability assays read luminescence as a measure of living cells.

A further data set has as its target T4, LIMK1 (Homo sapiens, UniProt P53667).
T4 construct: host or cells: HEK293T
Nature of the data set: Western blot of endogenous LIMK1 in HuCCT1 cells. Type of data set: cell-based. The following applies: HuCCT1, 6 h treatment. The method, then: HuCCT1 cell line was cultured in Roswell Park Memorial Institute (RPMI) 1640 medium supplemented with GlutaMAX, 10% fetal bovine serum (FBS), and 1% penicillin/streptomycin. The cell line was maintained in an incubator with 5% CO2 at 37 °C. For the treatment, 3 × 10^5 cells were plated and treated with the compounds and DMSO as the control for 6 h. The cells were then lysed using RIPA buffer (50 mM Tris-HCl pH 7.4, 150 mM NaCl, 1% Triton X-100, 1% NaDOC, 0.1% SDS, 1 mM EDTA), freshly supplemented with protease and phosphatase inhibitor cocktails (Sigma-Aldrich, Darmstadt, Germany). After 1 h incubation on ice, the lysates were centrifuged for 30 min at […], and the protein-containing supernatant was collected. The protein concentrations were determined using Protein Assay Dye Reagent Concentrate (Bradford, Bio-Rad, Hercules, CA, USA) and Pre-Diluted Protein Assay Standards: Bovine Serum Albumin (BSA) Set (Thermo Fisher Scientific, Darmstadt, Germany). Then, equal amounts of protein was mixed with Roti-Load 1 dye (Carl Roth, Karlsruhe, Germany) and 4x Laemmli Buffer (Bio-Rad, Hercules, CA, USA), denatured at 95 °C, and run on NuPAGE 4–12% bis-Tris gels (Thermo Fisher Scientific). Proteins were blotted on methanol-activated PVDF Transfer Membranes (Thermo Fisher Scientific) using the wet transfer method with the transfer buffer (Thermo Fisher Scientific) and 20% methanol. […]

T2 sequence (P53671 whole entry): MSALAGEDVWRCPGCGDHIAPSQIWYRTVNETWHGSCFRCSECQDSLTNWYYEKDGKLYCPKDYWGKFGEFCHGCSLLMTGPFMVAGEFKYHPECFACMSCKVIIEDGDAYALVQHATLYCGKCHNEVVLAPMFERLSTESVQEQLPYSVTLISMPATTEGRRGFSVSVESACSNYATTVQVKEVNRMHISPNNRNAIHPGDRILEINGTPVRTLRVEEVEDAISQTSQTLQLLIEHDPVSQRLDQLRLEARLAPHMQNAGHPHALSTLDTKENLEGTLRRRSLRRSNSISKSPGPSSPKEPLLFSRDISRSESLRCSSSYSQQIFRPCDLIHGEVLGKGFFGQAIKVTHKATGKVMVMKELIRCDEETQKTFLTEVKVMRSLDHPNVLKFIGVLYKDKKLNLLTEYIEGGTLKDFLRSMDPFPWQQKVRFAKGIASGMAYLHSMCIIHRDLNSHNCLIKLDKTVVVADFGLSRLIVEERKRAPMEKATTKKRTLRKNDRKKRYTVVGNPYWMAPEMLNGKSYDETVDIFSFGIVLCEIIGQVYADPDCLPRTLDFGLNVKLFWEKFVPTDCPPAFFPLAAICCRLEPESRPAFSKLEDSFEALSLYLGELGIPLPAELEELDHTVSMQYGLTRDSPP
T3 sequence (P53671 whole entry): as above
Chain of VHL:ELOB:ELOC (P40337 54-213 limits assumed, species assumed): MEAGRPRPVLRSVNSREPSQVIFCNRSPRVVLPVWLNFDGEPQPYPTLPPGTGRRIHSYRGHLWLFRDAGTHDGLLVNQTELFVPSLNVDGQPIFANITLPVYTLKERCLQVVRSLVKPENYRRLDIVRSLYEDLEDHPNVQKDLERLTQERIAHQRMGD
Chain of VHL:ELOB:ELOC (Q15370 whole entry partner, species assumed): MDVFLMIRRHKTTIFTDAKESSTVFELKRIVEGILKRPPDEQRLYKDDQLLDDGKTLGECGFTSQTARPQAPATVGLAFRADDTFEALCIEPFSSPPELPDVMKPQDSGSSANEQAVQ
Chain of VHL:ELOB:ELOC (Q15369 17-112 partner limits assumed, species assumed): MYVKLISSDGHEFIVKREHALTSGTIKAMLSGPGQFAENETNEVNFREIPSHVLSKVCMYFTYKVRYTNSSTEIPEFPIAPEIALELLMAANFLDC
T1 sequence (P40337 54-213 limits assumed, species assumed): as the sequence (P40337 54-213 limits assumed, species assumed) above
T1 sequence (Q15370 whole entry partner, species assumed, the tested form may be a part): as the sequence (Q15370 whole entry partner, species assumed) above
T1 sequence (Q15369 17-112 partner limits assumed, species assumed): as the sequence (Q15369 17-112 partner limits assumed, species assumed) above
T1 sequence (P53667 330-637 limits assumed, species assumed): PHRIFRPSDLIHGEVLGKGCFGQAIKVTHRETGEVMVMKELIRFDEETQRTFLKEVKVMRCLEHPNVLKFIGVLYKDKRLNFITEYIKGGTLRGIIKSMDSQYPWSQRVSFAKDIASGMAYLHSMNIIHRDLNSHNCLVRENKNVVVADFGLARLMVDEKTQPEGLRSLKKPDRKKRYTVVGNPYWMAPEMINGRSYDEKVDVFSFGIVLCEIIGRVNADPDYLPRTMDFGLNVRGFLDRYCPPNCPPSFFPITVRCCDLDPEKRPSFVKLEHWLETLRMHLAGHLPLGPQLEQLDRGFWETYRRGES
T4 sequence (P53667 whole entry): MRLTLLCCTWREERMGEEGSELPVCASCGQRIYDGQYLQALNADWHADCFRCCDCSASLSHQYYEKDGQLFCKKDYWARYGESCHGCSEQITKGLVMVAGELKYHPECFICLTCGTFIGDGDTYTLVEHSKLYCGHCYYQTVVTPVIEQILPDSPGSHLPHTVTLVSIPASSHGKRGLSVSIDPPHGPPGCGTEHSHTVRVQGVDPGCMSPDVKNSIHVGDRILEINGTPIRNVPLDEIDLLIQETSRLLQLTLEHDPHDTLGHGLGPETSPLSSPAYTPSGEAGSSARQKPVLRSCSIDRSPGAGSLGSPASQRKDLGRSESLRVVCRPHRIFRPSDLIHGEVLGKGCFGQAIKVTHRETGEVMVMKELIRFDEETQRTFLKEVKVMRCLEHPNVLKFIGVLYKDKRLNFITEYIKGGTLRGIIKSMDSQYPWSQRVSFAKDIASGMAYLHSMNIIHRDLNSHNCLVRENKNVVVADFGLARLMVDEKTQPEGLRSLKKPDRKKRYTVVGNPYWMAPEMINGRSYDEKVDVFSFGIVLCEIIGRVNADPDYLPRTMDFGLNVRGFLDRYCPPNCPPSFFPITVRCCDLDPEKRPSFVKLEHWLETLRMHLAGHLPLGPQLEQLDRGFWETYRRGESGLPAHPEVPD

As for `Cc1ncc(-c2ccc(CNC(=O)[C@@H]3C[C@@H](O)CN3C(=O)[C@@H](NC(=O)CCCc3cn(CCCCC(=O)Nc4ncc(-c5cc(C(F)F)nn5-c5c(Cl)cccc5Cl)s4)nn3)C(C)(C)C)cc2)s1` [23h], on VHL:ELOB:ELOC, the Kd is more than 1000 nM. For the same compound, the “higher affinity upon formation of ternary complex vs binary” value in data set [1] is on record as 10 fold.
`Cc1ncc(-c2ccc(CNC(=O)[C@@H]3C[C@@H](O)CN3C(=O)[C@@H](NC(=O)CCCc3cn(CCCCCC(=O)Nc4ncc(-c5cc(C(F)F)nn5-c5c(Cl)cccc5Cl)s4)nn3)C(C)(C)C)cc2)s1` [23i]: at VHL:ELOB:ELOC, the Kd was more than 1000 nM. Further, the “higher affinity upon formation of ternary complex vs binary” value in data set [1] was found to be 10 fold.
In the case of `Cc1c(OCc2cn(CCCCCC(=O)Nc3ncc(-c4cc(C(F)F)nn4-c4c(Cl)cccc4Cl)s3)nn2)cccc1N1CCC(=O)NC1=O` [22c], at EGFP–LIMK2 (HuCCT1 EGFP–LIMK2 cells, live-cell kinetic assay over 72 h, read-out: DC50 (LIMK2 degradation)), the DC50 was 13.7 nM. Besides, on EGFP–LIMK2 (vs 21b), the “potency enhancement (DC50) relative to 21b” value was 2.4 fold. Besides, at LIMK2 [2], the IC50 came out at 80 nM.
Consider `Cc1c(OCc2cn(CCCCC(=O)Nc3ncc(-c4cc(C(F)F)nn4-c4c(Cl)cccc4Cl)s3)nn2)cccc1N1CCC(=O)N(C)C1=O` [THNAN69-NC], for which, at EGFP–LIMK2, the “EGFP–LIMK2 degradation (in words)” value is listed as “no degradation of LIMK2”. Also, the “LIMK2 degradation (Western blot)” value on LIMK2 [3] was “did not induce any LIMK2 degradation”. Also, the cytotoxic effects entry in the data set on HEK293T cells was “no cytotoxic effects”.
As for `Cc1ncc(-c2ccc(CNC(=O)[C@@H]3C[C@@H](O)CN3C(=O)[C@@H](NC(=O)CCc3cn(CCCCCC(=O)Nc4ncc(-c5cc(C(F)F)nn5-c5c(Cl)cccc5Cl)s4)nn3)C(C)(C)C)cc2)s1` [23f], the Kd at VHL:ELOB:ELOC is more than 1000 nM.
Consider `Cc1ncc(-c2ccc(CNC(=O)[C@@H]3C[C@@H](O)CN3C(=O)[C@@H](NC(=O)c3cn(CCCCCC(=O)Nc4ncc(-c5cc(C(F)F)nn5-c5c(Cl)cccc5Cl)s4)nn3)C(C)(C)C)cc2)s1` [23c], for which the “EGFP–LIMK2 degradation (in words)” value on EGFP–LIMK2 is recorded as “moderate LIMK2 degradation”. Moreover, on LIMK2 [3], the “LIMK2 degradation (Western blot)” value is recorded as “modest LIMK2 degradation at 1 μM”.
Take `O=C1CCC(N2C(=O)c3cccc(OCc4cn(CC(=O)Nc5ncc(-c6cc(C(F)F)nn6-c6c(Cl)cccc6Cl)s5)nn4)c3C2=O)C(=O)N1` (stereo not drawn) [21a]: the “LIMK2 degradation (Western blot)” value at LIMK2 [3] is on record as “did not degrade either isoform”. Moreover, on LIMK1, the “LIMK1 degradation (Western blot)” value is reported as “did not degrade either isoform”.
